The target in experiment [1] is T1, CDK2 (Homo sapiens, UniProt P24941).
T1 construct: High-Throughput Measurement of Cellular Endogenous CDK2; endogenous in cells; host or cells: OVCAR3
The experiment is described as follows: High-throughput HTRF measurement of cellular endogenous CDK2 level (degradation, DC50/Dmax) in OVCAR3 cells, 6 h. The format is cell-based. The following applies: 6 h compound treatment, HTRF total CDK2, read-out: DC50_OVCAR3_6h. On the procedure:
High-Throughput Measurement of Cellular Endogenous CDK2
Effects of compounds on cellular CDK2 level were monitored by a high-throughput HTRF assay.
To determine half maximal degradation concentration (DC50) and maximum degradation level (Dmax) values of compounds, cellular CDK2 level was measured in 96-well format using HTRF total CDK2 cellular kit (Cat #64CDK2TPEG) from Cisbio.
On Day 1, OVCAR3 cells were seeded into 96-well tissue-culture treated plates at 20,000 cells/well in 200 μL and incubated overnight at 37° C. in CO2 atmosphere. On Day 2 cells were treated with compounds at concentration ranging from 0.03 to 1,000 nM using HP D300 digital dispenser. 6 hours after compound treatment, cell culture media was removed by flicking the plate and tapping the plate against clean paper towel. Immediately 30 μL 1× lysis buffer was supplemented from the kit and added to each well and the plate is incubated at room temperature on shaker for 30 min. After homogenization by pipetting up and down, 8 μL cell lysate from 96-well cell culture plate was transferred to 384-well small volume white detection plate. 2 μL premixed detection solution was added and the plate is covered with sealer. To prepare the detection solution, d2 conjugated-CDK2 antibody and Eu-cryptate conjugated CDK2 antibody were diluted into detection buffer following manufacturer's instruction. Detection plates were incubated overnight at room temperature and read on ClarioStar (BMG Labtech) in TR-FRET mode (665 nM and 620 nM). The TR-FRET ratio (665 nM/620 nM) was plotted against the compound concentration and normalized to DMSO controls (0% degradation) and lysis buffer controls (100% degradation). Half maximal degradation concentration (DC 50) […] were calculated with a four-parameter logistic fit using GraphPad Prism (version 8; La Jolla, CA).
In the table below, AA indicates a DC50 of greater than or equal to 0.5 nM but less than 1 nM; A indicates a DC50 of greater than or equal to 1 nM but less than or equal to 10 nM; B indicates a DC50 of greater than 10 nM but less than or equal to 100 nM; C indicates a DC50 of greater than 100 nM but less than or equal to 1 μM; and D indicates a DC50 of greater than 1 μM […] but less than or equal to 5 μM. NT means not tested.

The target in experiment [2] is T1, CDK2. Nature of the experiment: Inhibition of CDK2: phospho-Rb (S807/811) HTRF measurement in OVCAR3 cells, 24 h. The following applies: 24 h compound treatment, read-out: pRB_OVCAR3_24h. The format is cell-based. The essentials: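 IC50 came from a four-parameter fit of DMSO-normalized TR-FRET ratios (665/620 nm) reporting phospho-Rb S807/811. Lysates were taken from OVCAR3 cultures treated 24 h with compound (0.3 to 10,000 nM) and incubated 4 h at room temperature with the antibody pair.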

The structures appear in SMILES notation.

Regarding `Cn1nc(N2CCC(=O)NC2=O)c2ccc(C3CCN(CC4CCN(c5cccc(S(=O)(=O)N6CC[C@H](Nc7ncc(Cl)cn7)[C@H](F)C6)c5)CC4)CC3)cc21` (racemic) [Example 202, Rac-1-(6-(1-((1-(3-(((3R,4S)-4-((5-chloropyrimidin-2-yl)amino)-3-fluoropiperidin-1-yl)sulfonyl)phenyl)piperidin-4-yl)methyl)piperidin-4-yl)-1-methyl-1H-indazol-3-yl)dihydropyrimidine-2,4(1H,3H)-dione], the DC50 on CDK2 [1] fell in the range of 1 to 10 nM. The IC50 at CDK2 [2] was in the range of 1 to 100 nM.
The matching figures for `Cn1nc(N2CCC(=O)NC2=O)c2ccc(C3CCN(CC4CCN(c5cccc(S(=O)(=O)N6CC[C@H](Nc7ncc(C(F)(F)F)cn7)[C@H](F)C6)c5)CC4)CC3)cc21` (racemic) [Example 223, Rac-1-(6-(1-((1-(3-(((3R,4S)-3-fluoro-4-((5-(trifluoromethyl)pyrimidin-2-yl)amino)piperidin-1-yl)sulfonyl)phenyl)piperidin-4-yl)methyl)piperidin-4-yl)-1-methyl-1H-indazol-3-yl)dihydropyrimidine-2,4(1H,3H)-dione]: 1 to 10 nM and 1 to 100 nM.
The matching figures for `Cn1nc(N2CCC(=O)NC2=O)c2ccc(C3CCN(Cc4cccc(S(=O)(=O)N5CCC(Nc6ncc(C(F)(F)F)cn6)CC5)c4)CC3)cc21` [Example 1]: 1 to 10 nM and 1 to 100 nM.
On to `Cn1nc(N2CCC(=O)NC2=O)c2ccc(C3CCN(Cc4cccc(S(=O)(=O)N5CCC(Nc6ncc(C(F)(F)F)cn6)CC5)c4)CC3)c(F)c21` [Example 2, 1-(7-fluoro-1-methyl-6-(1-(3-((4-((5-(trifluoromethyl)pyrimidin-2-yl)amino)piperidin-1-yl)sulfonyl)benzyl)-piperidin-4-yl)-1H-indazol-3-yl)dihydropyrimidine-2,4(1H,3H)-dione], for which the DC50 on CDK2 [1] was 10 to 100 nM. For the same compound, the IC50 at CDK2 [2] is 1 to 100 nM.
The matching figures for `Cn1nc(N2CCC(=O)NC2=O)c2ccc(C3CCN(CCc4cccc(S(=O)(=O)N5CCC(Nc6ncc(C(F)(F)F)cn6)CC5)c4)CC3)cc21` [Example 6, 1-(1-methyl-6-(1-(3-((4-((5-(trifluoromethyl)pyrimidin-2-yl)amino)-piperidin-1-yl)sulfonyl)phenethyl)piperidin-4-yl)-1H-indazol-3-yl)dihydropyrimidine-2,4(1H,3H)-dione]: 100 to 1000 nM and 1 to 100 nM.
As to `Cc1ncsc1-c1ccc([C@H](C)NC(=O)[C@@H]2C[C@@H](O)CN2C(=O)[C@H](NC(=O)C2CCN(Cc3cccc(S(=O)(=O)N4CCC(Nc5ncc(C(F)(F)F)cn5)CC4)c3)CC2)C(C)(C)C)cc1` [Example 7, N-((R)-1-((2S,4R)-4-hydroxy-2-(((S)-1-(4-(4-methylthiazol-5-yl)phenyl)ethyl)-carbamoyl)pyrrolidin-1-yl)-3,3-dimethyl-1-oxobutan-2-yl)-1-(3-((4-((5-(trifluoro-methyl)pyrimidin-2-yl)amino)piperidin-1-yl)sulfonyl)benzyl) piperidine-4-carboxamide], the DC50 on CDK2 [1] was 100 to 1000 nM. Also, on CDK2 [2], the IC50 was in the range of 100 to 500 nM.
The matching figures for `Cc1ncsc1-c1ccc([C@H](C)NC(=O)[C@@H]2C[C@@H](O)CN2C(=O)[C@@H](NC(=O)C2(F)CC2)C(C)(C)SCC2CCN(Cc3cccc(S(=O)(=O)N4CCC(Nc5ncc(C(F)(F)F)cn5)CC4)c3)CC2)cc1` [Example 8, (2S,4R)-1-((R)-2-(1-fluorocyclopropane-1-carboxamido)-3-methyl-3-(((1-(3-((4-((5-(trifluoromethyl)pyrimidin-2-yl)amino)-piperidin-1-yl)sulfonyl)benzyl)piperidin-4-yl)methyl)thio)butanoyl)-4-hydroxy-N-((S)-1-(4-(4-methylthiazol-5-yl)phenyl)-ethyl)pyrrolidine-2-carboxamide]: 1 to 10 nM and 100 to 500 nM.
Take `Cn1nc(N2CCC(=O)NC2=O)c2ccc(C3CCN(Cc4cccc(S(=O)(=O)N5CCC(Nc6ncc(Cl)cn6)CC5)c4)CC3)cc21` [Example 11, 1-(6-(1-(3-((4-((5-chloropyrimidin-2-yl)amino)piperidin-1-yl)sulfonyl)benzyl)-piperidin-4-yl)-1-methyl-1H-indazol-3-yl)dihydropyrimidine-2,4(1H,3H)-dione]: the DC50 on CDK2 [1] lay in the range of 1 to 10 nM. In addition, at CDK2 [2], the IC50 was in the range of 100 to 500 nM.
In the case of `Cn1nc(N2CCC(=O)NC2=O)c2cc(F)c(C3CCN(Cc4cccc(S(=O)(=O)N5CCC(Nc6ncc(C(F)(F)F)cn6)CC5)c4)CC3)cc21` [Example 16, 1-(5-fluoro-1-methyl-6-(1-(3-((4-((5-(trifluoromethyl)pyrimidin-2-yl)amino)-piperidin-1-yl)sulfonyl)benzyl)piperidin-4-yl)-1H-indazol-3-yl)dihydropyrimidine-2,4(1H,3H)-dione], the DC50 on CDK2 [1] lay in the range of 10 to 100 nM. For the same compound, at CDK2 [2], the IC50 was 1 to 100 nM.
Turning to `Cn1nc(N2CCC(=O)NC2=O)c2cc(F)c(C3CCN(Cc4cccc(S(=O)(=O)N5CCC(Nc6ncc(Cl)cn6)CC5)c4)CC3)cc21` [Example 23, 1-(6-(1-(3-((4-((5-chloropyrimidin-2-yl)amino)piperidin-1-yl)sulfonyl)benzyl)-piperidin-4-yl)-5-fluoro-1-methyl-1H-indazol-3-yl)dihydropyrimidine-2,4(1H,3H)-dione], at CDK2 [1], the DC50 lay within 10 to 100 nM. Also, on CDK2 [2], the IC50 was 100 to 500 nM.
The matching figures for `Cn1nc(N2CCC(=O)NC2=O)c2ccc(C3CCN(Cc4cccc(S(=O)(=O)N5CCC(Nc6ncc(Br)cn6)CC5)c4)CC3)cc21` [Example 24, 1-(6-(1-(3-((4-((5-bromopyrimidin-2-yl)amino)piperidin-1-yl)sulfonyl)benzyl)-piperidin-4-yl)-1-methyl-1H-indazol-3-yl)dihydropyrimidine-2,4(1H,3H)-dione]: 1 to 10 nM and 100 to 500 nM.
The matching figures for `Cn1nc(N2CCC(=O)NC2=O)c2ccc(C3CCN(Cc4cccc(S(=O)(=O)N5CC[C@H](Nc6ncc(Cl)cn6)[C@H](F)C5)c4)CC3)cc21` [Example 27]: 10 to 100 nM and 100 to 500 nM.
The matching figures for `CC(Cc1cccc(S(=O)(=O)N2CCC(Nc3ncc(C(F)(F)F)cn3)CC2)c1)CN1CCC(c2ccc3c(N4CCC(=O)NC4=O)nn(C)c3c2)CC1` (centres unmarked) [Example 29]: 1 to 10 nM and 1 to 100 nM.
Take `Cn1nc(N2CCC(=O)NC2=O)c2ccc(C3CCN(Cc4cccc(S(=O)(=O)N5CCC(Nc6ncc(Cl)cn6)CC5)c4)CC3(F)F)cc21` (centres unmarked) [Example 33, 1-(6-(1-(3-((4-((5-chloropyrimidin-2-yl)amino)piperidin-1-yl)sulfonyl)benzyl)-3,3-difluoropiperidin-4-yl)-1-methyl-1H-indazol-3-yl)dihydropyrimidine-2,4(1H,3H)-dione]: the DC50 at CDK2 [1] is 10 to 100 nM. The IC50 at CDK2 [2] is 100 to 500 nM.
The matching figures for `Cn1nc(N2CCC(=O)NC2=O)c2ccc(C3CCN(Cc4cccc(S(=O)(=O)N5CCC(Nc6ncc(OC(F)F)cn6)CC5)c4)CC3)cc21` [Example 35, 1-(6-(1-(3-((4-((5-(difluoromethoxy)-pyrimidin-2-yl)amino)piperidin-1-yl)sulfonyl)benzyl)piperidin-4-yl)-1-methyl-1H-indazol-3-yl)dihydropyrimidine-2,4(1H,3H)-dione]: 10 to 100 nM and 1 to 100 nM.
As for `CC(c1cccc(S(=O)(=O)N2CCC(Nc3ncc(Cl)cn3)CC2)c1)N1CCC(c2ccc3c(N4CCC(=O)NC4=O)nn(C)c3c2)CC1` (centres unmarked) [Example 38], the DC50 at CDK2 [1] was in the range of 10 to 100 nM. The IC50 at CDK2 [2] lay in the range of 100 to 500 nM.

The values are drawn from patent US20260167623A1 (NIKANG THERAPEUTICS, INC., priority 2022, published 2026).
